Test results: US5804571A (U.S. Bioscience, priority 1995, dated 1998)

Key:
[1] = AZT recipients, cited from earlier work
[2] = tested on: murine hematopoietic system; test: exogenous spleen colony (CFU-S) assay, toxicity to the murine hematopoietic system; assay type: in vivo; conditions: CFU-S assay 20 hrs after drug administration, mice
Method: To evaluate toxicity to the murine hematopoietic system, an exogenous spleen colony (CFU-S) assay was used. A suitable number of murine […] are injected (intravenously) into lethally irradiated syngeneic mice (Ref. Hodgson, G. S., and Bradley, T. R., Properties of Haematopoietic Stem Cells Surviving 5-FU Treatment: Evidence for a pre-CFU-S Cell48, Nature 281:381, 1979).
Colonies are found in the spleen of the recipients on Day 9 or 10; there is a linear relationship between the number of cells injected and the number of spleen colonies. The spleen colonies originate from a single cell, and contain cells of the erythroid, granulocytic and megakaryocytic series.
At 20 hours after drug administration, each mouse was sacrificed and bone marrow was extracted from the femurs into McCoy's 5A medium (GIBCOm Grand Island, N.Y.) on ice. Nucleated marrow cells were quantitated, and 5×10^4 cells were injected intravenously into syngeneic recipient mice one hour after they received 800 rads whole body radiation. Nine days later, the recipient animals were sacrificed, and the spleens were removed and fixed in Boulin's solution. Surface colonies were then counted.

[3] = tested on: human immunodeficiency virus (HIV); conditions: cited from earlier work
[4] = placebo 4 percent (P less than 0.001)

| SMILES | neutropenia (less than 500 cells per cubic millimeter), share of recipients ([1]; placebo 2 percent (P less than 0.001)) | anemia with hemoglobin levels below 7.5 per deciliter, share of recipients [1, 4] | required multiple red-cell transfusions, share of recipients [1, 4] | CFU-S Survival (% of Control) ([2]; AZT alone, 400 mg/kg ip) | clinical benefits with AIDS ([3]; AIDS patients) | serious adverse reactions ([3]; human, in vivo) | CFU-S Survival (% of Control) ([2]; phosphorothioate 900 mg/kg po, followed in 30 minutes with AZT 400 mg/kg ip) |
| --- | --- | --- | --- | --- | --- | --- | --- |
| Cc1cn([C@H]2C[C@H](N=[N+]=[N-])[C@@H](CO)O2)c(=O)[nH]c1=O [AZT, 3'-azido-3'-deoxythymidinc] | 16% | 24% | 21% | 18% | clinical benefits with AIDS have been reported | serious adverse reactions, particularly bone marrow suppression were observed |  |
| CNCCCNCCCSP(=O)(O)O [S-3-(3-methylaminopropylamino)propyl dihydrogen phosphorothioate] |  |  |  |  |  |  | 68% |
